Test results reported in patent publication US7858349B2, “Anti-cancer compounds” (The Regents of the University of Colorado, priority 1999, dated 2010).
Where two headings read alike, the source gives them in different places.

How the values were obtained:
PC3 PC cells = experiment: Inhibition of PC3 tumor growth in vivo in nude mice; design: species or system athymic nude mice; key to PC3 In vivo % inhib.: an IC50 value of “0” represents no detectable anti-cancer activity for a drug in a given cell line; “Stim.” indicates the observation of a stimulatory activity on the growth of the cancer cell line; conditions: percent inhibition of tumor growth in nude mice; prostate cancer; i.p. 5 mg/kg/every second day or 10 mg/kg/every fourth day
Method: Compounds having high in vitro cytotoxic activity were tested against implanted tumors in vivo. Athymic nude mice were implanted subcutaneously with suspensions (2 million SHP-77 SCLC cells, 1 million A549 NSCLC cells or 1.5 million PC3 PC cells) in Matrigel suspension. On the eighth day after tumor implantation groups of 5 mice bearing implants were injected intraperitoneally with the compounds being tested at 5 mg/kg/every second day or at 10 mg/kg/every fourth day; control animals were injected with an equal volume of isotonic saline. Less soluble compounds were initially dissolved in dimethyl sulfoxide (DMSO) and diluted with medium. In those cases the control injections contained the same concentration of DMSO. Tumor size was measured with a caliper three times per week. Tumor volume was calculated by the formula: Volume(cc)=3.14×(length)×(width)^2/6 At autopsy tumors were removed and weighed. Tumor inhibition was calculated on both weight and measurement basis. In each Table, an IC50 value of “0” represents no detectable anti-cancer activity for a drug in a given cell line and “Stim.” indicates the observation of a stimulatory activity on the growth of the cancer cell line.

SCLC strain SHP-77 = experiment: MTT assay for cell survival, SCLC SHP-77 in vitro; format: cell-based, human; conditions: ED50 for killing of SCLC strain SHP-77 in vitro, 4 days, 0 = no detectable activity

| Compound | PC3 In vivo % inhib. (PC3 PC cells) | IC50 (SCLC strain SHP-77; read-out: SCLC SHP-77 IC50) [µM] | IC50 (SCLC strain SHP-77; read-out: SHP-77 In vitro IC50) [µM] |
| --- | --- | --- | --- |
| CC1(C)CC(NC(=O)[C@H](Cc2ccc(OCc3c(Cl)cccc3Cl)cc2)NC(=O)c2c3ccccc3nc3ccccc23)CC(C)(C)N1 [Analog M-1602, Acrc-OC2Y-Atmp] | Stim. | 1.6 |  |
| O=C(C=Cc1c(F)c(F)c(F)c(F)c1F)NC(Cc1ccc(OCc2c(Cl)cccc2Cl)cc1)C(=O)NC1CN2CCC1CC2 [Analog M-1546, F5c-OC2Y-(S)-Aqu] | 29% | 1.8 |  |
| CC1(C)CC(NC(=O)C(Cc2ccc(OCc3c(Cl)cccc3Cl)cc2)NC(=O)C=Cc2ccc(N)cc2)CC(C)(C)N1 (stereo not shown) [Analog M-1648, Pac-OC2Y-Atmp] | 28% | 7.6 |  |
| O=C(/C=C/c1c(F)c(F)c(F)c(F)c1F)N[C@@H](Cc1ccc(OCc2c(Cl)cccc2Cl)cc1)C(=O)NCc1nc2ccccc2[nH]1 [Analog M-1624, F5c-OC2Y-Ambi] | 68% | 50 |  |
| CC1(C)CC(NC(=O)[C@H](Cc2ccc(OCc3c(Cl)cccc3Cl)cc2)NC(=O)c2ccc(N)cc2O)CC(C)(C)N1 [Analog M-1592, Pas-OC2Y-Atmp] | Stim. | 7.2 |  |
| CC(C=CC1(O)C(C)=CC(=O)CC1(C)C)=CC(=O)NC(Cc1ccc(OCc2c(Cl)cccc2Cl)cc1)C(=O)NC1CC(C)(C)NC(C)(C)C1 (stereo not shown) [Analog M-1464, Aba-OC2Y-Atmp] | 14% | 14 |  |
| CC(C=CC1=C(C)CCCC1(C)C)=CC=CC(C)=CC(=O)NC(Cc1ccc(OCc2c(Cl)cccc2Cl)cc1)C(=O)NC1CC(C)(C)NC(C)(C)C1 (stereo not shown) [Analog M-1446, Ret-OC2Y-Atmp] | 60% | 6.7 |  |
| CC1(C)CC(NC(=O)C(Cc2ccc(-c3ccccc3)cc2)NC(=O)C(c2ccc(Cl)cc2)c2ccc(Cl)cc2)CC(C)(C)N1 (stereo not shown) [Analog M-1244, Bcpa-Bip-Atmp] | 59% |  | 1.3 |
| CC1CN(C(=O)C(Cc2ccc(OCc3c(Cl)cccc3Cl)cc2)NC(=O)C=Cc2c(F)c(F)c(F)c(F)c2F)CC(C)N1Cc1ccccc1 (stereo not shown) [Analog M-1556, F5c-OC2Y-cDmbp] | 59% | 18 |  |
| Cc1ccc(CSC(C)(C)C(NC(=O)C=Cc2cc(F)cc(F)c2F)C(=O)NC2CC(C)(C)NC(C)(C)C2)cc1 (stereo not shown) [Analog M-1502, F3c-Pen(Mbzl)-Atmp] | 11% | 3.4 |  |
| COc1ccc2c(c1)c(CC(=O)NC(Cc1ccc(OCc3c(Cl)cccc3Cl)cc1)C(=O)N1CC(C)N(Cc3ccccc3)C(C)C1)c(C)n2C(=O)c1ccc(Cl)cc1 (stereo not shown) [Analog M-1560, Indo-OC2Y-cDmbp] | Stim. | > 60 |  |
| O=C(/C=C/c1c(F)c(F)c(F)c(F)c1F)N[C@@H](Cc1ccc(OCc2c(Cl)cccc2Cl)cc1)C(=O)NCCN1CCOCC1 [Analog M-1632, F5c-OC2Y-Aem] | 32% | 7.8 |  |
| CC1(C)CC(NC(=O)[C@H](Cc2ccc(OCc3c(Cl)cccc3Cl)cc2)NCc2c(F)c(F)c(F)c(F)c2F)CC(C)(C)N1 [Analog M-1594, F5b-OC2Y-Atmp] | 20% | 3.1 |  |
| C=CCN1C(C)CN(C(=O)C(Cc2ccc(OCc3c(Cl)cccc3Cl)cc2)NC(=O)C=Cc2c(F)c(F)c(F)c(F)c2F)CC1C (stereo not shown) [Analog M-1614, F5c-OC2Y-cDmap] | 54% | 2 |  |
| COc1ccc2c(c1)c(CC(=O)NC(C(=O)NC1CC(C)(C)NC(C)(C)C1)C(C)(C)SCc1ccc(C)cc1)c(C)n2C(=O)c1ccc(Cl)cc1 (stereo not shown) [Analog M-1518, Indo-Pen(Mbzl)-Atmp] | Stim. | 6 |  |
| CC1(C)CC(NC(=O)[C@H](Cc2ccc(OCc3c(Cl)cccc3Cl)cc2)NC(=O)c2ccc3c(c2)C(=O)c2ccccc2C3=O)CC(C)(C)N1 [Analog M-1618, Aq2c-OC2Y-Atmp] | 10% | 2.2 |  |
| CC1(C)CC(NC(=O)C(Cc2ccc(C#N)cc2)NC(=O)C=Cc2c(F)c(F)c(F)c(F)c2F)CC(C)(C)N1 (stereo not shown) [Analog M-1110, F5c-PCNF-Atmp] | 54% |  | 0.9 |

| Compound | PC3 In vivo % inhib. (PC3 PC cells) | IC50 (SCLC strain SHP-77; read-out: SCLC SHP-77 IC50) [µM] | IC50 (SCLC strain SHP-77; read-out: SHP-77 In vitro IC50) [µM] |
| --- | --- | --- | --- |
| CC1(C)CC(NC(=O)C(Cc2ccc(OCc3c(Cl)cccc3Cl)cc2)NC(=O)C2(c3ccc(Cl)cc3)CC2)CC(C)(C)N1 (stereo not shown) [Analog M-1422, Cpcpc-OC2Y-Atmp] | 31% | 13 |  |
| O=C(C=Cc1c(F)c(F)c(F)c(F)c1F)NC(Cc1ccc(-c2ccccc2)cc1)C(=O)N1CCN(c2ncccn2)CC1 (stereo not shown) [Analog M-1260, F5c-Bip-Pmpz] | 60% |  | 10 |
| Cc1ccc(CSC(C)(C)C(NC(=O)CCCCC2SCC3NC(=O)NC32)C(=O)NC2CC(C)(C)NC(C)(C)C2)cc1 (stereo not shown) [Analog M-1468, Biot-Pen(Mbzl)-Atmp] | 46% | > 60 |  |
| COc1ccc2c(c1)c(CC(=O)N[C@@H](Cc1ccc(OCc3c(Cl)cccc3Cl)cc1)C(=O)NCCCN1CCN(C)CC1)c(C)n2C(=O)c1ccc(Cl)cc1 [Analog M-1584, Indo-OC2Y-Amp] | 32% | 1.5 |  |
| O=C(N[C@@H]1CN2CCC1CC2)C(Cc1ccc(OCc2c(Cl)cccc2Cl)cc1)NC(=O)C(c1ccccc1)C1CCCCC1 (single isomer, unassigned) [M-1550 #1] | 36% | 2.5 |  |
| COc1ccc2c(c1)c(CC(=O)N[C@@H](Cc1ccc(OCc3c(Cl)cccc3Cl)cc1)C(=O)N1CCN(C/C=C/c3ccccc3)CC1)c(C)n2C(=O)c1ccc(Cl)cc1 [Analog M-1566, Indo-OC2Y-tCip] | 57% | > 60 |  |
| CC1(C)CC(NC(=O)[C@@H](Cc2ccc(OCc3c(Cl)cccc3Cl)cc2)NC(=O)/C=C/c2c(F)c(F)c(F)c(F)c2F)CC(C)(C)N1 [Analog M-1108, F5c-D-OC2Y-Atmp] | 46% |  | > 60 |
| Cc1ccc(CSC(C)(C)C(NC(=O)CCCc2c[nH]c3ccccc23)C(=O)NC2CC(C)(C)NC(C)(C)C2)cc1 (stereo not shown) [Analog M-1474, 3Ibu-Pen(Mbzl)-Atmp] | Stim. | 7.8 |  |
| CC1(C)CC(NC(=O)C(Cc2ccc(OCc3c(Cl)cccc3Cl)cc2)NC(=O)c2ccc(S(N)(=O)=O)cc2)CC(C)(C)N1 (stereo not shown) [Analog M-1458, Sab-OC2Y-Atmp] | Stim. | > 60 |  |
| CC1(C)CC(NC(=O)C(Cc2ccc(OCc3c(Cl)cccc3Cl)cc2)NC(=O)C=Cc2ccc(C=O)cc2)CC(C)(C)N1 (stereo not shown) [Analog M-1456, Fcin-OC2Y-Atmp] | 17% | 4 |  |
| CC1(C)CC(NC(=O)C(Cc2ccc(OCc3c(Cl)cccc3Cl)cc2)NC(=O)C=Cc2ccc(B(O)O)cc2)CC(C)(C)N1 (stereo not shown) [Analog M-1460, Bcin-OC2Y-Atmp] | 38% | 23 |  |
| CC1(C)CC(NC(=O)C(Cc2ccc(C#N)cc2)NC(=O)CCCCC2SCC3NC(=O)NC32)CC(C)(C)N1 (stereo not shown) [Analog M-1466, Biot-PCNF-Atmp] | 29% | > 60 |  |
| Cc1ccc(CSC(C)(C)C(NC(=O)CCCc2ccc(N(CCCl)CCCl)cc2)C(=O)NC2CC(C)(C)NC(C)(C)C2)cc1 (stereo not shown) [Analog M-1498, Chl-Pen(Mbzl)-Atmp] | 20% | 3.5 |  |
| CC1(C)CC(NC(=O)C(Cc2ccc(OCc3c(Cl)cccc3Cl)cc2)NC(=O)C23CC4CC(CC(C4)C2)C3)CC(C)(C)N1 (stereo not shown) [Analog M-1494, Aca-OC2Y-Atmp] | 40% | 1.6 |  |
| O=C(C=Cc1c(F)c(F)c(F)c(F)c1F)NC(Cc1ccc(OCc2c(Cl)cccc2Cl)cc1)C(=O)NC1CCN(Cc2ccccc2)CC1 (stereo not shown) [Analog M-1552, F5c-OC2Y-Abzp] | 52% | 13 |  |
| Cc1onc(-c2ccccc2Cl)c1C(=O)N[C@@H](Cc1ccc(OCc2c(Cl)cccc2Cl)cc1)C(=O)NC1CC(C)(C)NC(C)(C)C1 [Analog M-1568, Cmioc-OC2Y-Atmp] | Stim. | 3.6 |  |
| O=C(/C=C/c1c(F)c(F)c(F)c(F)c1F)N[C@@H](Cc1ccc(OCc2c(Cl)cccc2Cl)cc1)C(=O)N1CCN(c2cccc(Cl)c2Cl)CC1 [Analog M-1578, F5c-OC2Y-Dcpp] | Stim. |  |  |
